From ChEMBL document CHEMBL2086309, “Discovery of liver selective non-steroidal glucocorticoid receptor antagonist as novel antidiabetic agents” (Bioorg Med Chem Lett, 2012)
pIC50: −log10 of the molar value.

What was measured:
[1] = molecular target: T1, Glucocorticoid receptor (Homo sapiens, UniProt P04150); assay: Displacement of [3H]dexamethasone from human glucocorticoid receptor expressed in baculovirus infected Sf9 cells after overnight incubation by scintillation counting
T1 sequence (P04150 whole entry): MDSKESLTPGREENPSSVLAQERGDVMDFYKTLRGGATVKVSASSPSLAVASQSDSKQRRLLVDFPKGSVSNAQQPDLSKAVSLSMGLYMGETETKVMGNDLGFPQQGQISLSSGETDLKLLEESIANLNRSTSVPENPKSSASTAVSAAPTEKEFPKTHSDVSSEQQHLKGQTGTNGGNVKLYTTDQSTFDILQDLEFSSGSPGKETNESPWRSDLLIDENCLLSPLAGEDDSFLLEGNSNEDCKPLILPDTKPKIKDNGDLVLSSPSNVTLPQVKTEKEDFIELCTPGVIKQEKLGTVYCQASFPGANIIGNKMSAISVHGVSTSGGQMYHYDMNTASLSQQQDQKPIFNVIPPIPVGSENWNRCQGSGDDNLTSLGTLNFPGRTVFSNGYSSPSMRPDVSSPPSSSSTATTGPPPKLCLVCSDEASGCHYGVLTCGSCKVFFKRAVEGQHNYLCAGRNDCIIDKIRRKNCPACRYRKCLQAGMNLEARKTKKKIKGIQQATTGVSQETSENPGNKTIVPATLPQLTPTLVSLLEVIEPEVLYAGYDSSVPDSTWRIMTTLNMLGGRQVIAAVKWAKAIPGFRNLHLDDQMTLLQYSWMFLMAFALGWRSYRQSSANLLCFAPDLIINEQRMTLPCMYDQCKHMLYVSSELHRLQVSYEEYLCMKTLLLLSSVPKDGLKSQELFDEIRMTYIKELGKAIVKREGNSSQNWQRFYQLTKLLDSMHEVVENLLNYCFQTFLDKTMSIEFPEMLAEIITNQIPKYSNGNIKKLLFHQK

[2] = molecular target: T2, Glucocorticoid receptor (Rattus norvegicus, UniProt P06536); assay: Antagonist activity at glucocorticoid receptor in rat hepatocytes assessed as inhibition of dexamethasone-induced […] expression incubated for 30 mins prior to dexamethasone-induction measured after 4 hrs by reporter gene assay; assay type: functional, cell-based, Hepatocyte
T2 sequence (P06536 whole entry): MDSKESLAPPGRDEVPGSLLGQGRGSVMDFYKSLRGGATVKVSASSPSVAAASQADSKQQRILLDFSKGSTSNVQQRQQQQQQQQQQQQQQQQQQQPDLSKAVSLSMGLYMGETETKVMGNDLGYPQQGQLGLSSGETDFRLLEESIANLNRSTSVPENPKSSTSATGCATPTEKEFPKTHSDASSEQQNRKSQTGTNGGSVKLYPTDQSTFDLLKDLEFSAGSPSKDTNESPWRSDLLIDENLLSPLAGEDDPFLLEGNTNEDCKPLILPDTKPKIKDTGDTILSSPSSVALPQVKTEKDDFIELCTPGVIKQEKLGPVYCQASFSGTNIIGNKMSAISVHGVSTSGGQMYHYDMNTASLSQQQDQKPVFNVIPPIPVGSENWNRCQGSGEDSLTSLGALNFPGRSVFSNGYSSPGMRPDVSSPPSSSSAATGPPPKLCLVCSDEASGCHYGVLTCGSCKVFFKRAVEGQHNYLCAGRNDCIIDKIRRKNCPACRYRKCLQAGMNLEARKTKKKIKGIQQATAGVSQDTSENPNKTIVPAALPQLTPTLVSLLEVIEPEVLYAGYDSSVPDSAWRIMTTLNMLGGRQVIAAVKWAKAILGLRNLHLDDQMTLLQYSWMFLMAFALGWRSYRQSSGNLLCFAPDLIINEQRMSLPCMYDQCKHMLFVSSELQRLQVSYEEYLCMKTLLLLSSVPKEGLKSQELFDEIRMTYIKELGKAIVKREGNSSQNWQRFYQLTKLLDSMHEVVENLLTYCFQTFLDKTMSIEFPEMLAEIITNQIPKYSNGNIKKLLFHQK

[3] = molecular target: T1, Glucocorticoid receptor; assay: Antagonist activity at human glucocorticoid receptor expressed in GRAF cells assessed as inhibition of dexamethasone-induced alkaline phosphatase expression after 48 hrs by reporter gene assay; assay type: functional, cell-based
[4] = molecular target: T1, Glucocorticoid receptor; assay: Antagonist activity at human glucocorticoid receptor expressed in CHOK1 cells assessed as inhibition of dexamethasone-induced alkaline phosphatase expression after 46 hrs by reporter gene assay; assay type: functional, cell-based, CHO-K1
[5] = molecular target: T2, Glucocorticoid receptor; assay: Antagonist activity at glucocorticoid receptor in rat H4IIE cells assessed as inhibition of dexamethasone-induced […] expression after 24 hrs by reporter gene assay; assay type: functional, cell-based
[6] = molecular target: T1, Glucocorticoid receptor; assay: Displacement of [3H]dexamethasone from human glucocorticoid receptor expressed in baculovirus infected Sf9 cells after 16-18 hrs by beta counting
[7] = Tmax in Sprague-Dawley rat at 20 mg/kg, po administered as single dose; assay type: ADME, organism-based; design: dose 20 mg/kg, route oral; settings: in vivo
[8] = test system: Rattus norvegicus; assay: Activation of hyphalamic-pituitary-adrenal axis in Sprague-Dawley rat assessed as change in ACTH level at 100 mg/kg, po administered as single dose measured at 2 hrs by ELISA relative to vehicle-treated control; assay type: organism-based; design: dose 100 mg/kg, route oral; settings: in vivo
[9] = test system: Mus musculus; assay: Antidiabetic activity in po dosed ob/ob mouse assessed as decrease in post-prandial blood glucose level administered BID for 28 days measured 16 hrs post-last dose; assay type: functional, organism-based
[10] = test system: Mus musculus; assay: Antidiabetic activity in ob/ob mouse assessed as decrease in post-prandial blood glucose level at 10 mg/kg, po administered BID for 28 days measured 16 hrs post-last dose relative to vehicle-treated control; assay type: functional; design: scale not given: the % may be the effect or the level left
[11] = test system: Mus musculus; assay: Antihyperlipidemic activity in ob/ob mouse assessed as cholesterol level at 10 mg/kg, po administered BID for 28 days measured 16 hrs post-last dose (reference value: 331.2+/-17.9 mg/dL); assay type: functional
[12] = test system: Mus musculus; assay: Antidiabetic activity in ob/ob mouse assessed as insulin level at 10 mg/kg, po administered BID for 28 days measured 16 hrs post-last dose by ELISA (reference value: 13.6+/-2.3 ng/mL); assay type: functional
[13] = test system: Mus musculus; assay: Antidiabetic activity in ob/ob mouse assessed as insulin level at 20 mg/kg, po administered BID for 28 days measured 16 hrs post-last dose by ELISA (reference value: 13.6+/-2.3 ng/mL); assay type: functional
[14] = test system: Mus musculus; assay: Toxicity in ob/ob mouse assessed as change in body weight at 10 mg/kg, po administered BID for 28 days (reference value: 11.7+/-1.1 g); assay type: organism-based; design: dose 10 mg/kg, route oral; settings: in vivo, 672 h
[15] = test system: Mus musculus; assay: Hepatotoxicity in ob/ob mouse assessed as AST level at 20 mg/kg, po administered BID for 28 days measured st 16 hrs post-last dose (reference value: 332.2+/-39.1 U/L); assay type: toxicity, organism-based; design: dose 20 mg/kg, route oral; settings: in vivo
[16] = test system: Mus musculus; assay: Antidiabetic activity in ob/ob mouse assessed as Hb1Ac level at 10 mg/kg, po administered BID for 28 days measured 16 hrs post-last dose (reference value: 9.3+/-0.4%); assay type: functional
[17] = test system: Mus musculus; assay: Antihyperlipidemic activity in ob/ob mouse assessed as free fatty acid level at 10 mg/kg, po administered BID for 28 days measured 16 hrs post-last dose (reference value: 1.96+/-0.09 mEq/L); assay type: functional
[18] = Oral bioavailability in Sprague-Dawley rat; assay type: ADME, organism-based; settings: in vivo
[19] = AUC (0 to infinity) in Sprague-Dawley rat at 20 mg/kg, po administered as single dose; assay type: ADME, organism-based; design: time infinity, dose 20 mg/kg, route oral; settings: plasma
[20] = Cmax in Sprague-Dawley rat at 20 mg/kg, po administered as single dose; assay type: ADME, organism-based; design: dose 20 mg/kg, route oral; settings: in vivo
[21] = Half life in Sprague-Dawley rat at 20 mg/kg, po administered as single dose; assay type: ADME, organism-based; design: dose 20 mg/kg, route oral; settings: in vivo
[22] = test system: Mus musculus; assay: Antidiabetic activity in ob/ob mouse assessed as decrease in post-prandial blood glucose level at 20 mg/kg, po administered BID for 28 days measured 16 hrs post-last dose relative to vehicle-treated control; assay type: functional; design: scale not given: the % may be the effect or the level left
[23] = test system: Rattus norvegicus; assay: Activation of hyphalamic-pituitary-adrenal axis in Sprague-Dawley rat assessed as change in corticosterone level at 100 mg/kg, po administered as single dose measured at 2 hrs relative to vehicle-treated control; assay type: organism-based; design: dose 100 mg/kg, route oral; settings: in vivo
[24] = Drug uptake in Sprague-Dawley rat liver at 20 mg/kg, po administered as single dose measured at 0.5 hrs; assay type: ADME, organism-based; design: dose 20 mg/kg, route oral; settings: read-out: Drug uptake
[25] = test system: Mus musculus; assay: Hepatotoxicity in ob/ob mouse assessed as ALT level at 10 mg/kg, po administered BID for 28 days measured st 16 hrs post-last dose (reference value: 259.4+/-18.6 U/L); assay type: toxicity, organism-based; design: dose 10 mg/kg, route oral; settings: in vivo
[26] = test system: Mus musculus; assay: Antihyperlipidemic activity in ob/ob mouse assessed as free fatty acid level at 20 mg/kg, po administered BID for 28 days measured 16 hrs post-last dose (reference value: 1.96+/-0.09 mEq/L); assay type: functional
[27] = test system: Mus musculus; assay: Toxicity in ob/ob mouse assessed as change in body weight at 20 mg/kg, po administered BID for 28 days (reference value: 11.7+/-1.1 g); assay type: organism-based; design: dose 20 mg/kg, route oral; settings: in vivo, 672 h
[28] = test system: Mus musculus; assay: Antihyperlipidemic activity in ob/ob mouse assessed as triglyceride level at 20 mg/kg, po administered BID for 28 days measured 16 hrs post-last dose (reference value: 292.5+/-17.5 mg/dL); assay type: functional
[29] = test system: Mus musculus; assay: Antihyperlipidemic activity in ob/ob mouse assessed as triglyceride level at 10 mg/kg, po administered BID for 28 days measured 16 hrs post-last dose (reference value: 292.5+/-17.5 mg/dL); assay type: functional
[30] = test system: Mus musculus; assay: Hepatotoxicity in ob/ob mouse assessed as ALT level at 20 mg/kg, po administered BID for 28 days measured st 16 hrs post-last dose (reference value: 259.4+/-18.6 U/L); assay type: toxicity, organism-based; design: dose 20 mg/kg, route oral; settings: in vivo
[31] = AUC in Sprague-Dawley rat at 20 mg/kg, iv administered as single dose; assay type: ADME, organism-based; design: dose 20 mg/kg, route intravenous; settings: plasma
[32] = test system: Mus musculus; assay: Antidiabetic activity in ob/ob mouse assessed as Hb1Ac level at 20 mg/kg, po administered BID for 28 days measured 16 hrs post-last dose (reference value: 9.3+/-0.4%); assay type: functional
[33] = Ratio of drug uptake in liver to plasma in Sprague-Dawley rat at 20 mg/kg, po administered as single dose; assay type: ADME, organism-based; design: dose 20 mg/kg, route oral
[34] = test system: Mus musculus; assay: Hepatotoxicity in ob/ob mouse assessed as AST level at 10 mg/kg, po administered BID for 28 days measured st 16 hrs post-last dose (reference value: 332.2+/-39.1 U/L); assay type: toxicity, organism-based; design: dose 10 mg/kg, route oral; settings: in vivo
[35] = test system: Mus musculus; assay: Antihyperlipidemic activity in ob/ob mouse assessed as cholesterol level at 20 mg/kg, po administered BID for 28 days measured 16 hrs post-last dose (reference value: 331.2+/-17.9 mg/dL); assay type: functional

O=C(O)Cc1ccc(N(Cc2ccccc2)Cc2ccc(Oc3ccccc3)cc2)cc1
pIC50 [1]: 5.72

O=C(O)Cc1cc(Br)c(N(Cc2ccc(Oc3ccc(Br)cc3Br)cc2)Cc2cc(F)cc(F)c2)c(Br)c1
pIC50 [2]: < 5.00 | pIC50 [3]: 5.85 | pIC50 [1]: 6.06

COc1ccc(Oc2ccc(CN(Cc3cc(F)cc(F)c3)c3c(Br)cc(CC(=O)O)cc3Br)cc2)c(OC)c1
pIC50 [1]: 5.80

COc1ccccc1Oc1ccc(CN(Cc2cc(F)cc(F)c2)c2c(Br)cc(CC(=O)O)cc2Br)cc1
pIC50 [1]: 5.90

c1ccc(CN(Cc2ccc(Oc3ccccc3)cc2)c2ccccc2)cc1
pIC50 [1]: < 5.00

COc1cc(C(=O)c2cccc(C)c2)c(Oc2c(Br)cc(CC(=O)O)cc2Br)cc1C(C)C
pIC50 [4]: 6.40 | pIC50 [2]: 5.60 | pIC50 [3]: 6.39 | pIC50 [1]: 7.70 | pIC50 [5]: 5.60 | pIC50 [6]: 7.72

O=C(O)Cc1cc(Br)c(N(Cc2ccc(Oc3ccccc3)cc2)Cc2cccc(F)c2)c(Br)c1
pIC50 [1]: 6.09

O=C(O)Cc1cc(Br)c(N(Cc2ccccc2)Cc2ccc(Oc3ccccc3)cc2)c(Br)c1
pIC50 [1]: 5.92

O=C(O)Cc1cc(Br)c(N(Cc2ccc(Oc3ccccc3Cl)cc2)Cc2cc(F)cc(F)c2)c(Br)c1
pIC50 [2]: 5.52 | pIC50 [3]: 6.29 | pIC50 [1]: 6.63

O=C(O)Cc1cc(Br)c(N(Cc2ccc(Oc3ccc(F)cc3F)cc2)Cc2cc(F)cc(F)c2)c(Br)c1
Tmax [7]: 0.51 h | Activity [8]: Non-toxic | Activity [9]: Dose-dependent effect | Activity [10]: 32% | pIC50 [2]: 6.05 | Activity [11]: 266.6 mg/dL | Activity [12]: 14.1 ng/mL | Activity [13]: 12.3 ng/mL | Activity [14]: 11.9 g | pIC50 [3]: 6.68 | Activity [15]: 353.2 U/L | Activity [16]: 6.7% | Activity [17]: 1.32 mEq/L | bioavailability [18]: 10.7% | AUC(0-inf) [19]: 1390 ng·h/mL | Cmax [20]: 880 ng/mL | half-life [21]: 5.96 h | Activity [22]: 42% | Activity [23]: Non-toxic | pIC50 [1]: 8.35 | concentration at 0.5 h [24]: 21800 ng/mL | Activity [25]: 261 U/L | Activity [26]: 1.17 mEq/L | Activity [27]: 10.9 g | Activity [28]: 173.5 mg/dL | Activity [29]: 214.3 mg/dL | Activity [30]: 247.5 U/L | AUC [31]: 13000 ng·h/mL | Activity [32]: 6% | Kp [33]: 24.8 | Activity [34]: 345.3 U/L | Activity [35]: 219.5 mg/dL
